Assay results: US20230263822A1, “MODULATION OF FACTOR 11 EXPRESSION” (Ionis Pharmaceuticals, Inc., priority 2008, published 2023)

Test: Hematology assays in cynomolgus monkeys (Example 45)
Assay type: in vivo
Description: Groups, each consisting of two male and three female monkeys, were injected subcutaneously with ISIS 416838, ISIS 416850, ISIS 416858, ISIS 416864, or ISIS 417002 in escalating doses. Antisense oligonucleotide was administered to the monkeys at 5 mg/kg three times per a week for week 1; 5 mg/kg twice per week for weeks 2 and 3; 10 mg/kg three times per week for week 4; 10 mg/kg twice per week for weeks 5 and 6; 25 mg/kg three times per week for week 7; and 25 mg/kg twice per week for weeks 8, 9, 10, 11, and 12. One control group, consisting of two male and three female monkeys, was injected subcutaneously with PBS according to the same dosing regimen. An additional experimental group, consisting of two male and three female monkeys, was injected subcutaneously with ISIS 416850 in a chronic, lower dose regimen. Antisense oligonucleotide was administered to the monkeys at 5 mg/kg three times per week for week 1; 5 mg/kg twice per week for week 2 and 3; 10 mg/kg three times per week for week 4; and 10 mg/kg twice per week for weeks 5 to 12. Body weights were measured weekly. Blood samples were collected 14 days and 5 days before the start of treatment and subsequently once per week for Factor 11 protein activity analysis in plasma, fibrinogen measurement, PT and aPTT measurements, bleeding times, and measurement of various hematologic factors. On day 85, the monkeys were euthanized by exsanguination while under deep anesthesia, and organs harvested for further analysis.
The ISIS oligonucleotide, ISIS 416850, given with the chronic dose regimen is distinguished from the other oligonucleotides with an asterisk (*).

[1] = day 8, chronic dose regimen (*)
[2] = day 15, chronic dose regimen (*)
[3] = day 15, escalating dose regimen
[4] = day 22, chronic dose regimen (*)
[5] = day 22, escalating dose regimen
[6] = day 29, chronic dose regimen (*)
[7] = day 29, escalating dose regimen
[8] = day 36, chronic dose regimen (*)
[9] = day 36, escalating dose regimen
[10] = day 43, chronic dose regimen (*)

Substance: ISIS 416850: MOE gapmer, nucleobases 1275 to 1318 of SEQ ID NO: 1 (Table 8) (antisense TGCACAGTTTCTGGCAGGCC; MOE gapmer, wing and gap sizes not given here)
- MCH (Day 64, escalating dose regimen): 22 pg
- MCH (Day 71, escalating dose regimen): 23 pg
- MCH (Day 78, escalating dose regimen): 23 pg
- MCH (Day 85, escalating dose regimen): 22 pg
- basophils (day 8): 0.2%
- eosinophils (day 8): 1.1%
- lymphocytes (day 8): 39%
- monocytes (day 8): 1.8%
- neutrophils (day 8): 57%
- platelet count (day 8): 548000 µL⁻¹
- reticulocytes (day 8): 1.2%
- MCH [1]: 23 pg
- MCHC [1]: 29 g/dL
- MCV [1]: 79 fL
- RBC count [1]: 5.5e+06 µL⁻¹
- WBC count [1]: 13000 µL⁻¹
- basophils [1]: 0.3%
- eosinophils [1]: 0.5%
- hematocrit [1]: 43%
- hemoglobin [1]: 12.5 g/dL
- lymphocytes [1]: 44%
- monocytes [1]: 1.8%
- neutrophils [1]: 53%
- platelet count [1]: 401000 µL⁻¹
- reticulocytes [1]: 1.1%
- MCH (day 8, escalating dose regimen): 23 pg
- MCHC (day 8, escalating dose regimen): 29 g/dL
- MCV (day 8, escalating dose regimen): 80 fL
- RBC count (day 8, escalating dose regimen): 5.4e+06 µL⁻¹
- WBC count (day 8, escalating dose regimen): 10000 µL⁻¹
- hematocrit (day 8, escalating dose regimen): 43%
- hemoglobin (day 8, escalating dose regimen): 12.4 g/dL
- basophils (day 15): 0.2%
- eosinophils (day 15): 1.0%
- lymphocytes (day 15): 38%
- monocytes (day 15): 2.0%
- neutrophils (day 15): 58%
- platelet count (day 15): 559000 µL⁻¹
- reticulocytes (day 15): 1.9%
- MCH [2]: 23 pg
- MCHC [2]: 30 g/dL
- MCV [2]: 75 fL
- RBC count [2]: 5.3e+06 µL⁻¹
- WBC count [2]: 16000 µL⁻¹
- basophils [2]: 0.2%
- eosinophils [2]: 0.2%
- hematocrit [2]: 40%
- hemoglobin [2]: 12.2 g/dL
- lymphocytes [2]: 24%
- monocytes [2]: 1.5%
- neutrophils [2]: 73%
- platelet count [2]: 396000 µL⁻¹
- reticulocytes [2]: 1.0%
- MCH [3]: 23 pg
- MCHC [3]: 30 g/dL
- MCV [3]: 76 fL
- RBC count [3]: 5.3e+06 µL⁻¹
- WBC count [3]: 9000 µL⁻¹
- hematocrit [3]: 40%
- hemoglobin [3]: 12.1 g/dL
- basophils (day 22): 0.2%
- eosinophils (day 22): 0.7%
- lymphocytes (day 22): 39%
- monocytes (day 22): 2.4%
- neutrophils (day 22): 57%
- platelet count (day 22): 466000 µL⁻¹
- reticulocytes (day 22): 1.9%
- MCH [4]: 23 pg
- MCHC [4]: 29 g/dL
- MCV [4]: 79 fL
- RBC count [4]: 5.1e+06 µL⁻¹
- WBC count [4]: 15000 µL⁻¹
- basophils [4]: 0.1%
- eosinophils [4]: 0.5%
- hematocrit [4]: 40%
- hemoglobin [4]: 11.7 g/dL
- lymphocytes [4]: 33%
- monocytes [4]: 1.9%
- neutrophils [4]: 64%
- platelet count [4]: 347000 µL⁻¹
- reticulocytes [4]: 1.0%
- MCH [5]: 24 pg
- MCHC [5]: 28 g/dL
- MCV [5]: 83 fL
- RBC count [5]: 5e+06 µL⁻¹
- WBC count [5]: 10000 µL⁻¹
- hematocrit [5]: 41%
- hemoglobin [5]: 11.6 g/dL
- basophils (day 29): 0.2%
- eosinophils (day 29): 1.2%
- lymphocytes (day 29): 43%
- monocytes (day 29): 2.7%
- neutrophils (day 29): 53%
- platelet count (day 29): 475000 µL⁻¹
- reticulocytes (day 29): 2.5%
- MCH [6]: 23 pg
- MCHC [6]: 28 g/dL
- MCV [6]: 82 fL
- RBC count [6]: 5.2e+06 µL⁻¹
- WBC count [6]: 14000 µL⁻¹
- basophils [6]: 0.3%
- eosinophils [6]: 0.8%
- hematocrit [6]: 42%
- hemoglobin [6]: 12.0 g/dL
- lymphocytes [6]: 53%
- monocytes [6]: 2.7%
- neutrophils [6]: 42%
- platelet count [6]: 370000 µL⁻¹
- reticulocytes [6]: 1.4%
- MCH [7]: 23 pg
- MCHC [7]: 28 g/dL
- MCV [7]: 83 fL
- RBC count [7]: 4.9e+06 µL⁻¹
- WBC count [7]: 11000 µL⁻¹
- hematocrit [7]: 41%
- hemoglobin [7]: 11.5 g/dL
- basophils (day 36): 0.3%
- eosinophils (day 36): 1.7%
- lymphocytes (day 36): 39%
- monocytes (day 36): 2.1%
- neutrophils (day 36): 57%
- platelet count (day 36): 505000 µL⁻¹
- reticulocytes (day 36): 2.2%
- MCH [8]: 23 pg
- MCHC [8]: 30 g/dL
- MCV [8]: 76 fL
- RBC count [8]: 5.3e+06 µL⁻¹
- WBC count [8]: 16000 µL⁻¹
- basophils [8]: 0.1%
- eosinophils [8]: 0.4%
- hematocrit [8]: 41%
- hemoglobin [8]: 12.3 g/dL
- lymphocytes [8]: 26%
- monocytes [8]: 1.5%
- neutrophils [8]: 72%
- platelet count [8]: 379000 µL⁻¹
- reticulocytes [8]: 1.3%
- MCH [9]: 23 pg
- MCHC [9]: 29 g/dL
- MCV [9]: 80 fL
- RBC count [9]: 5.3e+06 µL⁻¹
- WBC count [9]: 10000 µL⁻¹
- hematocrit [9]: 42%
- hemoglobin [9]: 12.2 g/dL
- basophils (day 43): 0.3%
- eosinophils (day 43): 1.2%
- lymphocytes (day 43): 45%
- monocytes (day 43): 2.6%
- neutrophils (day 43): 50%
- platelet count (day 43): 490000 µL⁻¹
- reticulocytes (day 43): 1.6%
- MCH [10]: 23 pg
- MCHC [10]: 30 g/dL
- MCV [10]: 77 fL
- RBC count [10]: 5.2e+06 µL⁻¹
- WBC count [10]: 15000 µL⁻¹
- basophils [10]: 0.2%
- eosinophils [10]: 0.4%
- hematocrit [10]: 40%
- hemoglobin [10]: 11.8 g/dL
- lymphocytes [10]: 36%
